The source of these data is ChEMBL document CHEMBL3217618, “The use of phosphate bioisosteres in medicinal chemistry and chemical biology” (Medchemcomm, 2012).

Molecules are shown by their SMILES. Numbered stars: 1 amine (or outer) side, 2 acyl side, 3 side chain; on linkers, the order of the positions; unused ones are H or OH. Square brackets hold non-standard residues; d marks the D form. Peptide text beside a SMILES is read from it. X1 = NS(=O)(=O)Cc1ccc(C[C@H](N[*:1])C(=O)[*:2])cc1

Assay [1] is described as follows: Inhibition of Bacillus anthracis PIsY1.
Assay [2] can be described thus: Inhibition of Yersinia pestis protein tyrosine phosphatase.
The nature of assay [3]: Inhibition of Streptococcus pneumoniae PIsY1.
Assay [4] deals with Growth factor receptor-bound protein 2 (Homo sapiens, UniProt P62993). The assay is described as follows: Binding affinity to SH2 domain of GRB2 (unknown origin) by surface plasmon resonance assay. A general note: SPR reads the build-up and loss of mass on a sensor chip optically.
Assay [5] in a line: Agonist activity at INSP3R in MFF assessed as calcium influx. Also noted: species or system Mus musculus.
The target of assay [6] is T1, Tyrosine-protein phosphatase non-receptor type 1 (Homo sapiens) (UniProt P18031).
T1 sequence (whole entry): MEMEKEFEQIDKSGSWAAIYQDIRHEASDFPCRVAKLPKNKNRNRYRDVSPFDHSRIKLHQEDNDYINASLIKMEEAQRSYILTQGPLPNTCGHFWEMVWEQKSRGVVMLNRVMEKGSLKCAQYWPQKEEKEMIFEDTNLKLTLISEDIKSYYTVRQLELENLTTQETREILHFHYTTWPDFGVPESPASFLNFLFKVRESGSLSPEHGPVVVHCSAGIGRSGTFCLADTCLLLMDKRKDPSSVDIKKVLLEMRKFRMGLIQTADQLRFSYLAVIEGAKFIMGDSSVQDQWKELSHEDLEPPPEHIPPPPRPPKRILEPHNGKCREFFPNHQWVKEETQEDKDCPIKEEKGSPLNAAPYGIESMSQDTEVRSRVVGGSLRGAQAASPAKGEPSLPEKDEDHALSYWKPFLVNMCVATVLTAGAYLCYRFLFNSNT
The assay is described as follows: Inhibition of PTP1B (unknown origin) at 11 uM.

Chain of Growth factor receptor-bound protein 2 (P62993 whole entry, the tested form may be a part): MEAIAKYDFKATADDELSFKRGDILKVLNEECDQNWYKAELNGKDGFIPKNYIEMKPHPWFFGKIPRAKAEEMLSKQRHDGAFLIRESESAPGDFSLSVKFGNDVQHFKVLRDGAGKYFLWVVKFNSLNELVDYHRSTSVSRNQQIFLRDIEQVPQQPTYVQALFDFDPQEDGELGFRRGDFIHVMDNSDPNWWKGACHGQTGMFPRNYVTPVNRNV

For the compound `CCCCCCCC/C=C/CCCCCCCC(=O)NS(=O)(=O)NCCC`, in assay [1], the IC50 turned out to be 200 µM.

`CC(=O)N[C@@H](CC(=O)O)C(=O)N[C@@H](C)C(=O)N[C@@H](CC(=O)O)C(=O)N[C@@H](CCC(=O)O)C(=O)N[C@@H](Cc1ccc(CS(N)(=O)=O)cc1)C(=O)N[C@@H](CC(C)C)C(N)=O` (Ac-DADE[X1]L-NH2) showed a 50% inhibitory concentration (IC50) in assay [2] of 0.37 µM.

As to `CCCCCC/C=C/CCCCCCCCCC(=O)NP(=O)(O)O`, the IC50 in assay [3] turned out to be 11 µM.

As to `Cc1ccc2c(ccn2C[C@@H]2C/C=C\C[C@H](c3ccc(CP(C)(=O)O)cc3)[C@H](CC(=O)O)C(=O)NC3(CCCCC3)C(=O)N[C@@H](CC(N)=O)C(=O)NC2)c1`, the Kd in assay [4] came to 0.0162 µM.

On to `CCCCCCCCCCCCCCCC(=O)NS(=O)(=O)Oc1ccc(OC)cc1`, for which the half-inhibitory concentration (IC50) in assay [1] was found to be 35 µM.

On to `COP(=O)(O)O[C@@H]1[C@@H](O)[C@H](OP(=O)(O)O)[C@H](O)[C@H](O)[C@H]1OP(=O)(O)O`, for which, in assay [5], the 50% inhibitory concentration (IC50) amounted to 9.7 µM.

On to `CCCCCNC(=O)[C@H](Cc1ccc(OC(C(=O)O)C(=O)O)cc1)NC(=O)CCC(=O)O`, for which the inhibition in assay [6] was 80%.

In the case of `CCCCCCCCCCCCCCCC(=O)C(F)(F)P(=O)(O)O`, the IC50 in assay [1] came to 50 µM; in assay [3], 39 µM.

With `CCCCCCCCCCCCCCCC(=O)CP(=O)(O)O`, the midpoint of inhibition in assay [1], the IC50, lay at 90 µM.

A word on the IC50: it is the concentration at which inhibition is half-maximal. For orientation: Kd means the free concentration of one partner at which half of the binding sites on the other are occupied at equilibrium, for simple one-to-one binding. Higher therefore signals a looser complex. As a reminder, the inhibition is the relative decrease from the control value, in per cent. Higher therefore signals a strong effect.
